Columns and labels:
Assay in all cases: Test C pre/postemergence
Assay type in all cases: in vivo
[1] = system: Surinam grass (Brachiaria decumbens); details: for Surinam Grass plant response rating: scale 0 to 100 (0 no effect, 100 complete control)
Summary of the method: (§1)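 Applications: preemergence onto seeded soil and postemergence onto 1- to 4-leaf seedlings, compound carried in non-phytotoxic solvent plus surfactant. Kept in greenhouse 12 to 14 days. Scored visually relative to untreated controls, 0 (no effect) to 100 (complete control).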

[2] = system: bermudagrass (Cynodon dactylon); details: for Bermudagrass plant response rating: scale 0 to 100 (0 no effect, 100 complete control)
Summary of the method: as §1

[3] = system: common ragweed (Ambrosia elatior); details: for Ragweed plant response rating: scale 0 to 100 (0 no effect, 100 complete control)
Summary of the method: as §1

[4] = system: eastern black nightshade (Solanum ptycanthum); details: Preemergence
Summary of the method: as §1

[5] = system: giant foxtail (Setaria faberii); details: for Foxtail, Giant plant response rating: scale 0 to 100 (0 no effect, 100 complete control)
Summary of the method: as §1

[6] = system: goosegrass (Eleusine indica); details: for Goosegrass plant response rating: scale 0 to 100 (0 no effect, 100 complete control)
Summary of the method: as §1

[7] = system: lambsquarters (Chenopodium album); details: for Lambsquarters plant response rating: scale 0 to 100 (0 no effect, 100 complete control)
Summary of the method: as §1

[8] = system: morningglory (Ipomoea coccinea); details: for Morningglory plant response rating: scale 0 to 100 (0 no effect, 100 complete control)
Summary of the method: as §1

[9] = system: soybean (Glycine max); details: for Soybean plant response rating: scale 0 to 100 (0 no effect, 100 complete control)
Summary of the method: as §1

[10] = system: velvetleaf (Abutilon theophrasti); details: for Velvetleaf plant response rating: scale 0 to 100 (0 no effect, 100 complete control)
Summary of the method: as §1

[11] = system: woolly cupgrass (Eriochloa villosa); details: for Cupgrass, Woolly plant response rating: scale 0 to 100 (0 no effect, 100 complete control)
Summary of the method: as §1

[12] = system: yellow nutsedge (Cyperus esculentus); details: for Nutsedge, Yellow plant response rating: scale 0 to 100 (0 no effect, 100 complete control)
Summary of the method: as §1

[13] = Postemergence, 250 g ai/ha, scale 0 to 100
[14] = Postemergence, 500 g ai/ha, scale 0 to 100
[15] = Preemergence, 62 g ai/ha, scale 0 to 100, 0 no effect, 100 complete control
[16] = Preemergence, 125 g ai/ha, scale 0 to 100
[17] = Preemergence, 250 g ai/ha, scale 0 to 100
[18] = Preemergence, 500 g ai/ha, scale 0 to 100
[19] = 62 g ai/ha, scale 0 to 100, 0 no effect, 100 complete control

CNN=Cc1nc(C2CC2)nc(N)c1Br [Compound 49]
Surinam Grass plant response rating ([1]; Postemergence, 62 g ai/ha): 0 | Surinam Grass plant response rating ([1]; Postemergence, 125 g ai/ha): 0 | Plant response rating, Surinam Grass [1, 13]: 40 | Plant response rating, Surinam Grass [1, 14]: 45 | Plant response rating, Surinam Grass [1, 15]: 0 | Plant response rating, Surinam Grass [1, 16]: 15 | Plant response rating, Surinam Grass [1, 17]: 40 | Plant response rating, Surinam Grass [1, 18]: 65 | Bermudagrass plant response rating ([2]; Postemergence, 62 g ai/ha): 0 | Bermudagrass plant response rating ([2]; Postemergence, 125 g ai/ha): 55 | Plant response rating, Bermudagrass [2, 13]: 55 | Plant response rating, Bermudagrass [2, 14]: 65 | Plant response rating, Bermudagrass [2, 15]: 0 | Plant response rating, Bermudagrass [2, 16]: 0 | Plant response rating, Bermudagrass [2, 17]: 85 | Plant response rating, Bermudagrass [2, 18]: 95 | Ragweed plant response rating ([3]; Postemergence, 62 g ai/ha): 45 | Ragweed plant response rating ([3]; Postemergence, 125 g ai/ha): 65 | Plant response rating, Ragweed [3, 13]: 75 | Plant response rating, Ragweed [3, 14]: 90 | Plant response rating, Ragweed [3, 15]: 70 | Plant response rating, Ragweed [3, 16]: 100 | Plant response rating, Ragweed [3, 17]: 100 | Plant response rating, Ragweed [3, 18]: 100 | Plant response rating, Nightshade [4, 19]: 95 | Plant response rating, Nightshade ([4]; 125 g ai/ha, scale 0 to 100): 100 | Plant response rating, Nightshade ([4]; 250 g ai/ha, scale 0 to 100): 100 | Plant response rating, Nightshade ([4]; 500 g ai/ha, scale 0 to 100): 100 | Foxtail, Giant plant response rating ([5]; Postemergence, 62 g ai/ha): 0 | Foxtail, Giant plant response rating ([5]; Postemergence, 125 g ai/ha): 0 | Plant response rating, Foxtail, Giant [5, 13]: 0 | Plant response rating, Foxtail, Giant [5, 14]: 0 | Plant response rating, Foxtail, Giant [5, 15]: 0 | Plant response rating, Foxtail, Giant [5, 16]: 0 | Plant response rating, Foxtail, Giant [5, 17]: 0 | Plant response rating, Foxtail, Giant [5, 18]: 65 | Goosegrass plant response rating ([6]; Postemergence, 62 g ai/ha): 0 | Goosegrass plant response rating ([6]; Postemergence, 125 g ai/ha): 0 | Plant response rating, Goosegrass [6, 13]: 20 | Plant response rating, Goosegrass [6, 14]: 25 | Plant response rating, Goosegrass [6, 15]: 0 | Plant response rating, Goosegrass [6, 16]: 0 | Plant response rating, Goosegrass [6, 17]: 0 | Plant response rating, Goosegrass [6, 18]: 15 | Lambsquarters plant response rating ([7]; Postemergence, 62 g ai/ha): 70 | Lambsquarters plant response rating ([7]; Postemergence, 125 g ai/ha): 90 | Plant response rating, Lambsquarters [7, 13]: 95 | Plant response rating, Lambsquarters [7, 14]: 95 | Plant response rating, Lambsquarters [7, 15]: 100 | Plant response rating, Lambsquarters [7, 16]: 100 | Plant response rating, Lambsquarters [7, 17]: 100 | Plant response rating, Lambsquarters [7, 18]: 100 | Morningglory plant response rating ([8]; Postemergence, 62 g ai/ha): 50 | Morningglory plant response rating ([8]; Postemergence, 125 g ai/ha): 70 | Plant response rating, Morningglory [8, 13]: 80 | Plant response rating, Morningglory [8, 14]: 100 | Plant response rating, Morningglory [8, 15]: 90 | Plant response rating, Morningglory [8, 16]: 95 | Plant response rating, Morningglory [8, 17]: 100 | Plant response rating, Morningglory [8, 18]: 100 | Soybean plant response rating ([9]; Postemergence, 62 g ai/ha): 95 | Soybean plant response rating ([9]; Postemergence, 125 g ai/ha): 95 | Plant response rating, Soybean [9, 13]: 95 | Plant response rating, Soybean [9, 14]: 100 | Plant response rating, Soybean [9, 15]: 0 | Plant response rating, Soybean [9, 16]: 70 | Plant response rating, Soybean [9, 17]: 90 | Plant response rating, Soybean [9, 18]: 90 | Velvetleaf plant response rating ([10]; Postemergence, 62 g ai/ha): 45 | Velvetleaf plant response rating ([10]; Postemergence, 125 g ai/ha): 70 | Plant response rating, Velvetleaf [10, 13]: 75 | Plant response rating, Velvetleaf [10, 14]: 80 | Plant response rating, Velvetleaf [10, 15]: 15 | Plant response rating, Velvetleaf [10, 16]: 70 | Plant response rating, Velvetleaf [10, 17]: 90 | Plant response rating, Velvetleaf [10, 18]: 100 | Cupgrass, Woolly plant response rating ([11]; Postemergence, 62 g ai/ha): 0 | Cupgrass, Woolly plant response rating ([11]; Postemergence, 125 g ai/ha): 15 | Plant response rating, Cupgrass, Woolly [11, 13]: 60 | Plant response rating, Cupgrass, Woolly [11, 14]: 65 | Plant response rating, Cupgrass, Woolly [11, 15]: 0 | Plant response rating, Cupgrass, Woolly [11, 16]: 0 | Plant response rating, Cupgrass, Woolly [11, 17]: 20 | Plant response rating, Cupgrass, Woolly [11, 18]: 25 | Nutsedge, Yellow plant response rating ([12]; Postemergence, 62 g ai/ha): 0 | Nutsedge, Yellow plant response rating ([12]; Postemergence, 125 g ai/ha): 0 | Plant response rating, Nutsedge, Yellow [12, 13]: 0 | Plant response rating, Nutsedge, Yellow [12, 14]: 0 | Plant response rating, Nutsedge, Yellow [12, 15]: 0 | Plant response rating, Nutsedge, Yellow [12, 16]: 0 | Plant response rating, Nutsedge, Yellow [12, 17]: 0 | Plant response rating, Nutsedge, Yellow [12, 18]: 0

CN(C)N=Cc1nc(C2CC2)nc(N)c1Br [Compound 50]
Surinam Grass plant response rating ([1]; Postemergence, 62 g ai/ha): 0 | Surinam Grass plant response rating ([1]; Postemergence, 125 g ai/ha): 0 | Plant response rating, Surinam Grass [1, 13]: 0 | Plant response rating, Surinam Grass [1, 14]: 60 | Plant response rating, Surinam Grass [1, 15]: 0 | Plant response rating, Surinam Grass [1, 16]: 15 | Plant response rating, Surinam Grass [1, 17]: 65 | Plant response rating, Surinam Grass [1, 18]: 85 | Bermudagrass plant response rating ([2]; Postemergence, 62 g ai/ha): 50 | Bermudagrass plant response rating ([2]; Postemergence, 125 g ai/ha): 75 | Plant response rating, Bermudagrass [2, 13]: 90 | Plant response rating, Bermudagrass [2, 14]: 95 | Plant response rating, Bermudagrass [2, 16]: 0 | Plant response rating, Bermudagrass [2, 17]: 0 | Plant response rating, Bermudagrass [2, 18]: 95 | Ragweed plant response rating ([3]; Postemergence, 62 g ai/ha): 20 | Ragweed plant response rating ([3]; Postemergence, 125 g ai/ha): 45 | Plant response rating, Ragweed [3, 13]: 45 | Plant response rating, Ragweed [3, 14]: 80 | Plant response rating, Ragweed [3, 15]: 70 | Plant response rating, Ragweed [3, 16]: 85 | Plant response rating, Ragweed [3, 17]: 95 | Plant response rating, Ragweed [3, 18]: 100 | Plant response rating, Nightshade [4, 19]: 95 | Plant response rating, Nightshade ([4]; 125 g ai/ha, scale 0 to 100): 100 | Plant response rating, Nightshade ([4]; 250 g ai/ha, scale 0 to 100): 100 | Plant response rating, Nightshade ([4]; 500 g ai/ha, scale 0 to 100): 100 | Foxtail, Giant plant response rating ([5]; Postemergence, 62 g ai/ha): 0 | Foxtail, Giant plant response rating ([5]; Postemergence, 125 g ai/ha): 0 | Plant response rating, Foxtail, Giant [5, 13]: 0 | Plant response rating, Foxtail, Giant [5, 14]: 20 | Plant response rating, Foxtail, Giant [5, 15]: 0 | Plant response rating, Foxtail, Giant [5, 16]: 0 | Plant response rating, Foxtail, Giant [5, 17]: 0 | Plant response rating, Foxtail, Giant [5, 18]: 70 | Goosegrass plant response rating ([6]; Postemergence, 62 g ai/ha): 0 | Goosegrass plant response rating ([6]; Postemergence, 125 g ai/ha): 0 | Plant response rating, Goosegrass [6, 13]: 0 | Plant response rating, Goosegrass [6, 14]: 0 | Plant response rating, Goosegrass [6, 15]: 0 | Plant response rating, Goosegrass [6, 16]: 0 | Plant response rating, Goosegrass [6, 17]: 0 | Plant response rating, Goosegrass [6, 18]: 0 | Lambsquarters plant response rating ([7]; Postemergence, 62 g ai/ha): 70 | Lambsquarters plant response rating ([7]; Postemergence, 125 g ai/ha): 75 | Plant response rating, Lambsquarters [7, 13]: 80 | Plant response rating, Lambsquarters [7, 14]: 85 | Plant response rating, Lambsquarters [7, 15]: 95 | Plant response rating, Lambsquarters [7, 16]: 100 | Plant response rating, Lambsquarters [7, 17]: 100 | Plant response rating, Lambsquarters [7, 18]: 100 | Morningglory plant response rating ([8]; Postemergence, 62 g ai/ha): 65 | Morningglory plant response rating ([8]; Postemergence, 125 g ai/ha): 80 | Plant response rating, Morningglory [8, 13]: 85 | Plant response rating, Morningglory [8, 14]: 95 | Plant response rating, Morningglory [8, 15]: 80 | Plant response rating, Morningglory [8, 16]: 95 | Plant response rating, Morningglory [8, 17]: 95 | Plant response rating, Morningglory [8, 18]: 100 | Soybean plant response rating ([9]; Postemergence, 62 g ai/ha): 95 | Soybean plant response rating ([9]; Postemergence, 125 g ai/ha): 95 | Plant response rating, Soybean [9, 13]: 100 | Plant response rating, Soybean [9, 14]: 100 | Plant response rating, Soybean [9, 15]: 0 | Plant response rating, Soybean [9, 16]: 60 | Plant response rating, Soybean [9, 17]: 75 | Plant response rating, Soybean [9, 18]: 90 | Velvetleaf plant response rating ([10]; Postemergence, 62 g ai/ha): 50 | Velvetleaf plant response rating ([10]; Postemergence, 125 g ai/ha): 55 | Plant response rating, Velvetleaf [10, 13]: 70 | Plant response rating, Velvetleaf [10, 14]: 80 | Plant response rating, Velvetleaf [10, 15]: 65 | Plant response rating, Velvetleaf [10, 16]: 75 | Plant response rating, Velvetleaf [10, 17]: 85 | Plant response rating, Velvetleaf [10, 18]: 100 | Cupgrass, Woolly plant response rating ([11]; Postemergence, 62 g ai/ha): 0 | Cupgrass, Woolly plant response rating ([11]; Postemergence, 125 g ai/ha): 0 | Plant response rating, Cupgrass, Woolly [11, 13]: 15 | Plant response rating, Cupgrass, Woolly [11, 14]: 30 | Plant response rating, Cupgrass, Woolly [11, 15]: 0 | Plant response rating, Cupgrass, Woolly [11, 16]: 0 | Plant response rating, Cupgrass, Woolly [11, 17]: 0 | Plant response rating, Cupgrass, Woolly [11, 18]: 40 | Nutsedge, Yellow plant response rating ([12]; Postemergence, 62 g ai/ha): 0 | Nutsedge, Yellow plant response rating ([12]; Postemergence, 125 g ai/ha): 0 | Plant response rating, Nutsedge, Yellow [12, 13]: 0 | Plant response rating, Nutsedge, Yellow [12, 14]: 0 | Plant response rating, Nutsedge, Yellow [12, 15]: 0 | Plant response rating, Nutsedge, Yellow [12, 16]: 0 | Plant response rating, Nutsedge, Yellow [12, 17]: 0 | Plant response rating, Nutsedge, Yellow [12, 18]: 0

From patent US8802597B2, “Herbicidal pyrimidines” (E I du Pont de Nemours and Company, priority 2003, dated 2014)
